Laboratory results as given in patent US8163737B2 (Vertex Pharmaceuticals Incorporated, priority 2006, dated 2012).

Tests used:
[1] = biological target: endogenous CGRP receptor (Homo sapiens, UniProt O60894+Q16602); experiment: CGRP functional antagonism using SK-N-MC-BLA (4C10), β-lactamase transcriptional reporter assay; assay type: cell-based; conditions: SK-N-MC (4C10) cells, inhibition of β-lactamase expression in the presence of 200 pM CGRP
[2] = biological target: T1, CGRP receptor (SK-N-MC membrane) (Homo sapiens, UniProt O60894+Q16602); experiment: I125-CGRP binding displacement assay on purified SK-N-MC membrane
T1 construct: Purified SK-N-MC membrane was purchased from Perkin Elmer; purchased Perkin Elmer; host or cells: SK-N-MC membrane
Protocol: Purified SK-N-MC membrane was purchased from Perkin Elmer. The membrane was thawed quickly and placed on ice. The compounds were diluted with CGRP binding solution (25 mM Tris-HCl, pH7.4, 5 mM MgCl2, 0.1% BSA and 0.05% Tween). The membrane was diluted 1:20 with the binding solution and homogenized with Tissue Matster-50 Homogenizer (Omni International) for 30 sec. The homogenized membrane was added to compounds in the binding solution. […] After 2 hour incubation at room temperature, the reaction was stopped by rapid filtration through 0.5% PEI treated GF/C filter plate (Perkin Elmer) and the filter plate was washed with ice-cold washing solution (50 mM Tris HCl, pH7.4, 5 mM MgCl2 and 0.1% BSA) using cell harvestor (Tomtec). The radioactivity of the filter plates were read on Topcount (Packard). The nonspecific binding was determined in the control reaction where 1 uM unlabelled CGRP was preincubated with the membrane prior to I125-CGRP addition. The total binding was determined in the control reaction of the membrane and I125-CGRP in the absence of compound. The percent displacement of I125-CGRP with compounds was calculated using nonspecific and total binding controls. The curve fitting was carried out using MOD3.

T1 sequence (Q16602 23-461): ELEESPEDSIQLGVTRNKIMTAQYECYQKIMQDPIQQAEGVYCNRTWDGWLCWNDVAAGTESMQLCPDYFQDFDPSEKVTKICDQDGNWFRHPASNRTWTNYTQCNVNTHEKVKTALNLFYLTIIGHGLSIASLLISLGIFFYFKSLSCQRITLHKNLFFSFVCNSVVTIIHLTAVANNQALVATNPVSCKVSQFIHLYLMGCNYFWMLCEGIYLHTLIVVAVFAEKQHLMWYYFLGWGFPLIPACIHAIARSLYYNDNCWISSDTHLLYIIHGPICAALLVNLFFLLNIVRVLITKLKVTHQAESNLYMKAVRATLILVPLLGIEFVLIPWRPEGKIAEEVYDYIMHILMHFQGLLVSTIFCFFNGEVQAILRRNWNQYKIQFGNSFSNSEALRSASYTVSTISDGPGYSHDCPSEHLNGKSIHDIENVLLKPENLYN
T1 sequence (O60894 27-148): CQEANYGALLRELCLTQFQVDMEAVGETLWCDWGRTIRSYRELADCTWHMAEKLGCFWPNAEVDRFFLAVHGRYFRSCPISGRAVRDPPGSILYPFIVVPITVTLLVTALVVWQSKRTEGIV
Sequence of endogenous CGRP receptor (Q16602 23-461): as the sequence (Q16602 23-461) above
Sequence of endogenous CGRP receptor (O60894 27-148): as the sequence (O60894 27-148) above

SMILES	IC50 [1] [nM]	Ki [2] [nM]
O=C(CC1SC(c2ccccc2)N(CC2CCCO2)C1=O)N1CCC(N2Cc3ccccc3NC2=O)CC1 (stereo not shown) [Compound 113]	< 1000	< 1000
CC(C)(C)CCN1C(=O)C(CC(=O)N2CCC(N3Cc4ccccc4NC3=O)CC2)SC1c1ccccc1-n1cccn1 (stereo not shown) [Compound 115]	< 1000	< 1000
C#CCN1C(=O)C(CC(=O)N2CCC(N3Cc4ccccc4NC3=O)CC2)SC1c1ccccc1 (stereo not shown) [Compound 116]	1000 to 5000	< 1000
CC(C)CCN1C(=O)C(CC(=O)N2CCC(N3Cc4ccccc4NC3=O)CC2)[S+]([O-])C1c1ccccc1 (stereo not shown) [Compound 118]	1000 to 5000	< 1000
CC(C)CCN1C(=O)C(CC(=O)N2CCC(N3CCc4ccccc4NC3=O)CC2)SC1c1ccccc1N1CCC(O)CC1 (stereo not shown) [Compound 120]	< 1000	< 1000
CC(C)CCN1C(=O)C(CC(=O)N2CCC(N3Cc4ccccc4NC3=O)CC2)S(=O)(=O)C1c1ccccc1 (stereo not shown) [Compound 122]	> 5000	< 1000
CC(C)CCN1C(=O)C(CC(=O)N2CCC(n3cc(-c4ccccc4)[nH]c3=O)CC2)SC1c1ccc(F)c(F)c1 (stereo not shown) [Compound 127]	1000 to 5000	> 5000
O=C(CC1SC(c2ccccc2)N(CCc2ccccn2)C1=O)N1CCC(N2Cc3ccccc3NC2=O)CC1 (stereo not shown) [Compound 128]	1000 to 5000	< 1000
Cc1cc(C2SC(CC(=O)N3CCC(N4Cc5ccccc5NC4=O)CC3)C(=O)N2CC2CCCCC2)cc2cn[nH]c12 (stereo not shown) [Compound 145]	< 1000	< 1000
O=C(CC1SC(c2ccccc2)N(CC2CCCCC2)C1=O)N1CCC(N2CCc3ccccc3NC2=O)CC1 (stereo not shown) [Compound 147]	< 1000	< 1000
CC(C)CCN1C(=O)[C@H](CC(=O)N2CCC(N3Cc4ccccc4NC3=O)CC2)SC1c1ccccn1 (stereo partly shown) [Compound 148]	1000 to 5000	< 1000
CC(C)CCN1C(=O)C(CC(=O)N2CCC(N3CCc4ccccc4NC3=O)CC2)SC1c1ccccc1F (stereo not shown) [Compound 149]	< 1000	< 1000
CC(C)(C)CCN1C(=O)C(CC(=O)N2CCC(N3CCc4ccccc4NC3=O)CC2)SC1c1ccccc1N1CCC(O)CC1 (stereo not shown) [Compound 150]	< 1000	< 1000
CCOCCCN1C(=O)C(CC(=O)N2CCC(N3Cc4ccccc4NC3=O)CC2)SC1c1ccccc1 (stereo not shown) [Compound 159]	< 1000	< 1000
CC(C)(C)CCN1C(=O)C(CC(=O)N2CCC(N3Cc4ccccc4NC3=O)CC2)SC1c1ccccc1N1CCOCC1 (stereo not shown) [Compound 160]	< 1000	< 1000
CC(C)CCN1C(=O)C(CC(=O)N2CCC(N3Cc4ccccc4NC3=O)CC2)SC1c1cccc(OC(F)(F)F)c1 (stereo not shown) [Compound 169]	1000 to 5000	< 1000
CC(C)CCN1C(=O)C(CC(=O)N2CCC(N3Cc4ccccc4NC3=O)CC2)SC1c1ccccc1F (stereo not shown) [Compound 170]	< 1000	< 1000
Cc1ccccc1C1SC(CC(=O)N2CCC(N3CCc4ccccc4NC3=O)CC2)C(=O)N1CCC(C)C (stereo not shown) [Compound 171]	< 1000	< 1000
Cc1ccccc1C1SC(CC(=O)N2CCC(N3Cc4ccccc4NC3=O)CC2)C(=O)N1CCC(C)C (stereo not shown) [Compound 172]	< 1000	< 1000
CC(C)CCN1C(=O)C(CC(=O)N2CCC(N3Cc4ccccc4NC3=O)CC2)SC12CCSCC2 (stereo not shown) [Compound 174]	< 1000	< 1000
N#Cc1ccccc1C1SC(CC(=O)N2CCC(N3CCc4ccccc4NC3=O)CC2)C(=O)N1CC1CCCCC1 (stereo not shown) [Compound 175]	< 1000	< 1000
CC(C)CCN1C(=O)[C@H](CC(=O)N2CCC(N3Cc4ccccc4NC3=O)CC2)SC1c1ccccn1 (stereo partly shown) [Compound 176]	1000 to 5000	< 1000
CC(C)CCN1C(=O)C(CC(=O)N2CCC(N3Cc4ccccc4NC3=O)CC2)SC1c1cccnc1 (stereo not shown) [Compound 182]	< 1000	< 1000
CC(C)CCN1C(=O)C(CC(=O)N2CCC(N3CCc4ccccc4NC3=O)CC2)SC1c1ccccc1-n1cccn1 (stereo not shown) [Compound 183]	< 1000	< 1000
O=C(CC1SC(c2ccccc2)N(c2ccccc2)C1=O)N1CCC(N2Cc3ccccc3NC2=O)CC1 (stereo not shown) [Compound 187]	1000 to 5000	< 1000
CC(C)CCN1C(=O)C(CC(=O)N2CCC(N3Cc4ccccc4NC3=O)CC2)SC1C1CCCC1 (stereo not shown) [Compound 188]	< 1000	< 1000
O=C(CC1SC(Cc2ccccc2)N(CC(F)(F)F)C1=O)N1CCC(N2Cc3ccccc3NC2=O)CC1 (stereo not shown) [Compound 190]	> 5000	1000 to 5000

SMILES	IC50 [1] [nM]	Ki [2] [nM]
CC(C)CCN1C(=O)C(CC(=O)N2CCC(N3CCc4ccccc4NC3=O)CC2)SC1c1c(F)cccc1C(F)(F)F (stereo not shown) [Compound 194]	< 1000	< 1000
CC(C)CCN1C(=O)C(CC(=O)N2CCC(n3cc(-c4ccccc4)[nH]c3=O)CC2)SC12CCCCC2 (stereo not shown) [Compound 195]	1000 to 5000	> 5000
CN(C)c1ccccc1C1SC(CC(=O)N2CCC(N3Cc4ccccc4NC3=O)CC2)C(=O)N1CCC(C)(C)C (stereo not shown) [Compound 198]	< 1000	< 1000
CC(C)CCN1C(=O)C(CC(=O)N2CCC(N3Cc4ccccc4NC3=O)CC2)SC1c1ccc(F)c(F)c1 (stereo not shown) [Compound 202]	< 1000	< 1000
CC(C)CCN1C(=O)C(CC(=O)N2CCC(N3Cc4ccccc4NC3=O)CC2)S(=O)(=O)C1c1ccc(F)cc1F (stereo not shown) [Compound 203]	1000 to 5000	< 1000
Cc1ccc(C2SC(CC(=O)N3CCC(N4Cc5ccccc5NC4=O)CC3)C(=O)N2CCC(C)C)cc1C (stereo not shown) [Compound 204]	1000 to 5000	1000 to 5000
O=C(CC1SC(c2ccccc2)N(Cc2ccc(F)cc2)C1=O)N1CCC(N2Cc3ccccc3NC2=O)CC1 (stereo not shown) [Compound 208]	< 1000	< 1000
CN(C)c1ccccc1C1SC(CC(=O)N2CCC(N3Cc4ccccc4NC3=O)CC2)C(=O)N1CCC(C)(C)C (stereo not shown) [Compound 211]	1000 to 5000	< 1000
CC(C)CCN1C(=O)C(CC(=O)N2CCC(N3Cc4ccccc4NC3=O)CC2)SC1c1ccc(F)cc1F (stereo not shown) [Compound 212]	< 1000	< 1000
COC(=O)[C@@H](CC(C)C)N1C(=O)C(CC(=O)N2CCC(N3CCc4ccccc4NC3=O)CC2)SC1c1ccccc1 (stereo partly shown) [Compound 225]	< 1000	< 1000
CC(C)CC1SC(CC(=O)N2CCC(N3Cc4ccccc4NC3=O)CC2)C(=O)N1CC(F)(F)F (stereo not shown) [Compound 226]	1000 to 5000	< 1000
CC(C)CCN1C(=O)C(CC(=O)N2CCC(N3Cc4ccccc4NC3=O)CC2)SC1c1ccccc1C#N (stereo not shown) [Compound 227]	< 1000	< 1000
O=C(CC1SC(c2ccccc2)N(C2CC2)C1=O)N1CCC(N2Cc3ccccc3NC2=O)CC1 (stereo not shown) [Compound 230]	> 5000	1000 to 5000
O=C(CC1SC(c2ccccc2)N(CCc2ccncc2)C1=O)N1CCC(N2Cc3ccccc3NC2=O)CC1 (stereo not shown) [Compound 236]	1000 to 5000	< 1000
CC(C)CCN1C(=O)C(CC(=O)N2CCC(n3cc(-c4ccccc4)[nH]c3=O)CC2)SC1c1ccc(F)cc1F (stereo not shown) [Compound 237]	< 1000	> 5000
CC(C)CCN1C(=O)C(CC(=O)N2CCC(N3Cc4ccccc4NC3=O)CC2)SC1c1cccc(OC(F)(F)C(F)F)c1 (stereo not shown) [Compound 240]	1000 to 5000	< 1000
CC(C)(C)CCN1C(=O)C(CC(=O)N2CCC(N3CCc4ccccc4NC3=O)CC2)SC1c1ccccc1F (stereo not shown) [Compound 244]	< 1000	< 1000
Cc1cc(C2SC(CC(=O)N3CCC(n4cc(-c5ccccc5)[nH]c4=O)CC3)C(=O)N2CCC(C)C)cc2cn[nH]c12 (stereo not shown) [Compound 248]	< 1000	> 5000
CC(C)(C)N1C(=O)C(CC(=O)N2CCC(N3Cc4ccccc4NC3=O)CC2)SC1c1ccccc1 (stereo not shown) [Compound 251]	> 5000	1000 to 5000
CC(C)N1C(=O)C(CC(=O)N2CCC(N3Cc4ccccc4NC3=O)CC2)SC1c1ccccc1 (stereo not shown) [Compound 255, 3,4-Dihydro-3-(1-(2-(3-isopropyl-4-oxo-2-phenylthiazolidin-5-yl)acetyl)piperidin-4-yl)quinazolin-2(1H)-one]	1000 to 5000	< 1000
CC(C)CCN1C(=O)C(CC(=O)N2CCC(N3Cc4ccccc4NC3=O)CC2)SC1c1c(F)cccc1C(F)(F)F (stereo not shown) [Compound 256]	< 1000	< 1000
CC(C)CCN1C(=O)C(CC(=O)N2CCC(n3cc4ccccc4nc3=O)CC2)SC1c1ccccc1 (stereo not shown) [Compound 259]	< 1000	< 1000
CC(C)CCN1C(=O)C(CC(=O)N2CCC(N3CCc4ccccc4NC3=O)CC2)SC1c1ccccc1-n1ccnc1 (stereo not shown) [Compound 260]	< 1000	< 1000
CN(C)c1ccccc1C1SC(CC(=O)N2CCC(N3CCc4ccccc4NC3=O)CC2)C(=O)N1CCC(C)(C)C (stereo not shown) [Compound 263]	< 1000	< 1000
O=C(CC1SC(c2ccccc2)N(CC2CCCCC2)C1=O)N1CCC(N2Cc3ccccc3NC2=O)CC1 (stereo not shown) [Compound 264]	< 1000	< 1000
N#Cc1ccccc1C1SC(CC(=O)N2CCC(N3Cc4ccccc4NC3=O)CC2)C(=O)N1CC1CCCCC1 (stereo not shown) [Compound 265]	< 1000	< 1000
